pKd: −log10 of the molar value.
Columns and labels:
[1] = test system: db/db mice; experiment: Postprandial blood glucose level measurement after oral starch load; format: in vivo; settings: for glucose AUC / reduction of glucose AUC of diabetic mice: oral starch 2 g/kg; for reduction of glucose AUC of diabetic mice: vs model
Procedure: db/db mice and C57BL/6J mice were purchased f0rom Beijing Zhishan Health Medical Research Institute. The animal testing procedure was approved by Beijing Huayuan Times Technology Co., Ltd Ethics Committee on the Management and Welfare of Laboratory Animals. (Ethics review batch number: HYSD2023-04) and strictly follows the local and national codes of ethics. All mice were placed in a control chamber at 25 °C and 60% relative humidity with a light/dark period of 12/12 h. During this period, all mice had free access to normal feed and water. […] All mice were given starch (2 g/kg) orally 60 min after treatment. Blood samples were taken from the caudal vein and blood glucose was measured after 0, 30, 60, and 120 min. The area under the curve (AUC) was calculated using the trapezoidal rule.

[2] = molecular target: T1, α-amylase (Sus scrofa, UniProt P00690); experiment: Inhibition kinetic analysis (Lineweaver-Burk) on α-amylase; format: biochemical, porcine; set-up: Vmax α-amylase: unit not given beside the values
T1 construct: α-amylase (EC 232-565-6, powder, ≥5 units/mg solid) isolated from porcine pancreas; purchased Sigma-Aldrich Co; host or cells: porcine pancreas
T1 sequence (P00690 16-511): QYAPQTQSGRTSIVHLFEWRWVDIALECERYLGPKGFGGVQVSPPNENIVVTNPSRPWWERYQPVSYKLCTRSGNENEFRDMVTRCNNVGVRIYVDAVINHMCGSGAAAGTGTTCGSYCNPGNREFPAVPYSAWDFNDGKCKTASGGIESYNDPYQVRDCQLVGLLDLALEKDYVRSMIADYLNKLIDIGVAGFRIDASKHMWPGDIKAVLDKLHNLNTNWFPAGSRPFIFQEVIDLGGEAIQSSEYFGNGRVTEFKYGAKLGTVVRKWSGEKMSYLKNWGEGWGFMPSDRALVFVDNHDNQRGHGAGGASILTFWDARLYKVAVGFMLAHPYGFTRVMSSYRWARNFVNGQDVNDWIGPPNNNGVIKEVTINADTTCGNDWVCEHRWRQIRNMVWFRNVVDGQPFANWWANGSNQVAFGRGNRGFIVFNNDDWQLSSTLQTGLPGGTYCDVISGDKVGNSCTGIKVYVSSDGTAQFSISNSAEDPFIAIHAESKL
Procedure: The reactions of a series of compounds with substrates pNαPG and G3-CNP were tested using the Lineweaver–Burk expression in Equation (1) to calculate the maximum velocity (Vmax) and Michaelis–Menten constant (Km) values. (1) 1/v=Km/Vmax1/[S]+1/Vmax, where Vmax and Km are the maximum velocity of the enzyme and the Michaelis–Menten constant without inhibitor, respectively. [S] is the concentrations of the substrate and inhibitor.

[3] = molecular target: T1, α-amylase; experiment: Fluorescence quenching experiment with α-amylase (Stern-Volmer, double logarithmic, Van 't Hoff); format: binding, porcine; settings: for pKd: Ka (binding constant) α-amylase
From the text: Based on the previously described techniques, the fluorescence quenching experiment was somewhat modified. […] The 5.0 nm excitation and emission slit widths were predetermined.
The drop in fluorescence intensity brought on by the interaction of the quencher and the fluorescence group is what causes dynamic quenching. When the collision between the quencher and the fluorescence group intensifies as the temperature rises, the quenching constant rises. The quenching mechanism of the enzyme was further studied using the Stern–Volmer equation:(2) F0/F=1+Kqτ0Q=1+Ksv[Q], where Kq is the bimolecular quenching constant, F0 represents the fluorescence intensity of starch-digesting enzymes in the absence of inhibitors, F represents the fluorescence intensity of starch-digesting enzymes in the presence of inhibitors, and τ0 is the lifetime of the fluorophore in protein (about 10^−8 s).
By calculating the thermodynamic parameters of the quenching process, the binding affinity and the main force of the reaction process were evaluated. […] The thermodynamic parameters ΔH, ΔS, and ΔG represent enthalpy change, entropy change, and free energy change, respectively. […] The interaction forces in the reaction process can be roughly divided into four types: hydrophobic interaction, hydrogen bonding, electrostatic interaction, and van der Waals interaction.

## O=c1c(O)c(-c2ccc(O)c(O)c2)oc2cc(O[C@@H]3O[C@H](CO)[C@@H](O)[C@H](O)[C@H]3O)cc(O)c12 [Quercimeritrin]
[1]; 100 mg/kg
  glucose AUC: 43.7 mmol·h/L
  reduction of glucose AUC of diabetic mice: 19.0%
[1]; 200 mg/kg
  glucose AUC: 40.7 mmol·h/L
  reduction of glucose AUC of diabetic mice: 24.5%
[1]; HD group 200 mg/kg, oral starch
  postprandial blood glucose level: significantly lower than that of the control and acarbose groups
[2]; Lineweaver-Burk diagram
  inhibition mode on α-amylase: competitive inhibition
[2]; [I] 15.6 μM
  Vmax α-amylase: 0.0521
[2]; [I] 31.3 μM
  Vmax α-amylase: 0.0532
[2]; [I] 62.5 μM
  Vmax α-amylase: 0.0522
[2]; [I] 125 μM
  Vmax α-amylase: 0.0526
[2]; [I] 250 μM
  Vmax α-amylase: 0.0503
[2]; [I] 500 μM
  Vmax α-amylase: 0.0508
[3]
  fluorescence quenching mechanism, α-amylase: static quenching
[3]; T 300.15 K
  pKd: 4.82
  Ksv (quenching constant) α-amylase: 0.13 ±0.03 10^5 /M
  n (number of binding sites) α-amylase: 1.20
[3]; T 305.15 K
  pKd: 4.54
  Ksv (quenching constant) α-amylase: 0.15 ±0.02 10^5 /M
  n (number of binding sites) α-amylase: 1.10
[3]; T 310.15 K
  pKd: 4.41
  Ka (binding constant) α-amylase: 0.26 ± 0.01 10^5 /M
  Ksv (quenching constant) α-amylase: 0.18 ±0.04 10^5 /M
  n (number of binding sites) α-amylase: 1.04
[3]; Van 't Hoff, 300.15-310.15 K
  ΔH α-amylase: -3.37 ± 0.93 kcal/mol
  ΔS α-amylase: -153.31 ±34.89 J/mol/K
[3]; text summary over temperatures
  n (number of binding sites) α-amylase: ~1
